The supplement of paper PMC11208160

Experiment: recombinant barcode read abundance after kanamycin selection (control-corrected) (log10(CPM+1)); higher = more efficient recombination; sequences stand for … in AGTGCAGAGAAAATCGGCCAGTTTTCTCTGCCTGCAGTCCGCATGCCGT…AGATTTATGCAGCGGACTGCCTTTCTCCCAAAGTGATAAACCGGACAGTATCATGGACCGGTTTTCCCGGTAATCCGTATTTGCAAGGTTGGTTTCACT; site = the 11-nt target
How it was run: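 Reported as log10(CPM+1), each value stands for recombination efficiency. That efficiency is the averaged, control-corrected counts per million of barcodes found at recombinant junctions. Cells from a pooled E. coli library pairing targets with IS621 bridge RNA target-binding loops were plated twice on chloramphenicol/ampicillin LB agar (control) and twice on chloramphenicol/ampicillin/kanamycin with 0.1 mM IPTG.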
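Also: IS621 recombinase and bridge RNA in Escherichia coli cells.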

Sequence | recombinant barcode read abundance (log10)
TAGTCTTCTTGGGTTCTAACCTGTTGCGT (site AAGTATTCTAC) | 0.066
TAGTCTTCTTGGGTTCTAACCTGTTGCGT (site TAGTCTTCTAC) | 0.681
TAGTGGTCTTGGGTTCTAACCTGTTGCAT (site TAGTGGTCTAT) | 2.04
TAGTGGTCTTGGGTTCTAACCTGTTGCAT (site TAGTGGTCTTA) | 0.215
TAGTGTCCTTGGGTTCTAACCTGTTGCCA (site TAGTGTCCTTG) | 0.357
TAGTGTCCTTGGGTTCTAACCTGTTGCCA (site TGGTGTGCTTG) | 0.142
TAGTGTGCTTGGGTTCTAACCTGTTGCGT (site TAGTGTGCTAA) | 0.0341
TAGTGTGCTTGGGTTCTAACCTGTTGCGT (site TAGTGTGCTAC) | 1.66
TAGTGTTCTTGGGTTCTAACCTGTTGCAT (site TAGTGTCCTAT) | 0.109
TAGTGTTCTTGGGTTCTAACCTGTTGCAT (site TAGTGTTCTAT) | 0.918
TAGTTAGCTTGGGTTCTAACCTGTTGCCA (site TAGTTAGCTAG) | 0.0117
TAGTTAGCTTGGGTTCTAACCTGTTGCCA (site TAGTTAGCTCG) | 0.17
TAGTTAGCTTGGGTTCTAACCTGTTGCCA (site TAGTTAGCTGG) | 0.0516
TAGTTAGCTTGGGTTCTAACCTGTTGCCA (site TAGTTAGCTTG) | 0.418
TAGTTCACTTGGGTTCTAACCTGTTGCAT (site TAGATCACTAT) | 0.0793
TAGTTCACTTGGGTTCTAACCTGTTGCAT (site TAGCTCACTAT) | 0.0603
TAGTTCACTTGGGTTCTAACCTGTTGCAT (site TAGGTCACTAT) | 0.159
TAGTTCACTTGGGTTCTAACCTGTTGCAT (site TAGTTCACTAT) | 0.382
TAGTTTACTTGGGTTCTAACCTGTTGCAG (site ACTCCAGCTAG) | 0.294
TAGTTTACTTGGGTTCTAACCTGTTGCAG (site TAGTTTACTCT) | 0.272
TAGTTTACTTGGGTTCTAACCTGTTGCCA (site TAGTTAACTTG) | 0.0268
TAGTTTACTTGGGTTCTAACCTGTTGCCA (site TAGTTCACTTG) | 0.109

Sequence | recombinant barcode read abundance (log10)
TAGTTTACTTGGGTTCTAACCTGTTGCCA (site TAGTTGACTTG) | 0.0764
TAGTTTACTTGGGTTCTAACCTGTTGCCA (site TAGTTTACTTG) | 0.334
TATAAAACTTGGGTTCTAACCTGTTGCCT (site TATAAAACTAG) | 0.0338
TATAAAACTTGGGTTCTAACCTGTTGCCT (site TATACAACTAG) | 0.0401
TATAAAACTTGGGTTCTAACCTGTTGCCT (site TATAGAACTAG) | 0.0357
TATAAAACTTGGGTTCTAACCTGTTGCCT (site TATATAACTAG) | 0.697
TATAACACTTGGGTTCTAACCTGTTGCCG (site CTACTATCTGC) | 0.0288
TATAACACTTGGGTTCTAACCTGTTGCCG (site TATAACACTCG) | 0.246
TATAACTCTTGGGTTCTAACCTGTTGCCT (site AATAACTCTAG) | 0.0281
TATAACTCTTGGGTTCTAACCTGTTGCCT (site CATAACTCTAG) | 0.198
TATAACTCTTGGGTTCTAACCTGTTGCCT (site GATAACTCTAG) | 0.0978
TATAACTCTTGGGTTCTAACCTGTTGCCT (site TATAACTCTAG) | 0.549
TATACTGCTTGGGTTCTAACCTGTTGCCT (site TATACTACTAG) | 0.0148
TATACTGCTTGGGTTCTAACCTGTTGCCT (site TATACTGCTAG) | 0.0304
TATAGAACTTGGGTTCTAACCTGTTGCCT (site TATAAAACTAG) | 0.119
TATAGAACTTGGGTTCTAACCTGTTGCCT (site TATACAACTAG) | 0.0987
TATAGAACTTGGGTTCTAACCTGTTGCCT (site TATAGAACTAG) | 0.192
TATAGAACTTGGGTTCTAACCTGTTGCCT (site TATATAACTAG) | 0.015
TATCCGACTTGGGTTCTAACCTGTTGCCC (site TATCCGACTAG) | 0.238
TATCCGACTTGGGTTCTAACCTGTTGCCC (site TATCCGACTCG) | 0.146
TATCCGACTTGGGTTCTAACCTGTTGCCC (site TATCCGACTGG) | 0.688
TATCCGACTTGGGTTCTAACCTGTTGCCC (site TATCCGACTTG) | 0.125

Sequence | recombinant barcode read abundance (log10)
TATCGCACTTGGGTTCTAACCTGTTGCCT (site TATCGCACTAG) | 0.0277
TATCGCACTTGGGTTCTAACCTGTTGCCT (site TATGGGACTAG) | 0.0986
TATCGGGCTTGGGTTCTAACCTGTTGCAG (site ATGGACCCTGA) | 0.0316
TATCGGGCTTGGGTTCTAACCTGTTGCAG (site TATCGGGCTCT) | 1.57
TATCGTCCTTGGGTTCTAACCTGTTGCAT (site TACCGTCCTAT) | 0.0483
TATCGTCCTTGGGTTCTAACCTGTTGCAT (site TATCGTCCTAT) | 0.803
TATCTGACTTGGGTTCTAACCTGTTGCCT (site TATCAGACTTG) | 0.0204
TATCTGACTTGGGTTCTAACCTGTTGCCT (site TATCTGACTAG) | 0.202
TATGCTACTTGGGTTCTAACCTGTTGCAT (site AATGCTACTAT) | 1.03
TATGCTACTTGGGTTCTAACCTGTTGCAT (site TATGCTACTAT) | 0.371
TATGCTTCTTGGGTTCTAACCTGTTGCTT (site TATGCTTCTAA) | 0.0973
TATGCTTCTTGGGTTCTAACCTGTTGCTT (site TATGGTTCTAG) | 0.0104
TATGGGTCTTGGGTTCTAACCTGTTGCCT (site TATGGGTCTAG) | 1.04
TATGGGTCTTGGGTTCTAACCTGTTGCCT (site TGTGGGTCTAG) | 0.209
TATGTAGCTTGGGTTCTAACCTGTTGCCG (site TATGTAGCTAG) | 0.486
TATGTAGCTTGGGTTCTAACCTGTTGCCG (site TATGTAGCTCG) | 1.04
TATGTAGCTTGGGTTCTAACCTGTTGCCG (site TATGTAGCTGG) | 0.107
TATGTAGCTTGGGTTCTAACCTGTTGCCG (site TATGTAGCTTG) | 0.0858
TATGTAGCTTGGGTTCTAACCTGTTGCCT (site TATGTAGCTAG) | 0.677
TATGTAGCTTGGGTTCTAACCTGTTGCCT (site TATGTAGCTCG) | 0.353
TATGTAGCTTGGGTTCTAACCTGTTGCCT (site TATGTAGCTGG) | 0.103
TATGTAGCTTGGGTTCTAACCTGTTGCCT (site TATGTAGCTTG) | 0.129

Sequence | recombinant barcode read abundance (log10)
TATTAACCTTGGGTTCTAACCTGTTGCCT (site TATTAACCTAG) | 0.329
TATTAACCTTGGGTTCTAACCTGTTGCCT (site TATTACCCTAG) | 0.117
TATTAACCTTGGGTTCTAACCTGTTGCCT (site TATTAGCCTAG) | 0.0897
TATTAACCTTGGGTTCTAACCTGTTGCCT (site TATTATCCTAG) | 0.0539
TATTAGCCTTGGGTTCTAACCTGTTGCCT (site TATTAACCTAG) | 0.138
TATTAGCCTTGGGTTCTAACCTGTTGCCT (site TATTACCCTAG) | 0.283
TATTAGCCTTGGGTTCTAACCTGTTGCCT (site TATTAGCCTAG) | 0.123
TATTAGCCTTGGGTTCTAACCTGTTGCCT (site TATTATCCTAG) | 0.27
TATTATCCTTGGGTTCTAACCTGTTGCCT (site TATTAACCTAG) | 0.341
TATTATCCTTGGGTTCTAACCTGTTGCCT (site TATTACCCTAG) | 0.0929
TATTATCCTTGGGTTCTAACCTGTTGCCT (site TATTAGCCTAG) | 0.121
TATTATCCTTGGGTTCTAACCTGTTGCCT (site TATTATCCTAG) | 0.0487
TATTCTACTTGGGTTCTAACCTGTTGCGA (site TATTCTACTAC) | 0.0359
TATTCTACTTGGGTTCTAACCTGTTGCGA (site TATTCTACTCC) | 0.0347
TATTCTACTTGGGTTCTAACCTGTTGCGA (site TATTCTACTGC) | 0.165
TATTCTACTTGGGTTCTAACCTGTTGCGA (site TATTCTACTTC) | 0.0707
TATTCTCCTTGGGTTCTAACCTGTTGCAT (site TATTCTCCTAA) | 0.0409
TATTCTCCTTGGGTTCTAACCTGTTGCAT (site TATTCTCCTAC) | 0.235
TATTCTCCTTGGGTTCTAACCTGTTGCAT (site TATTCTCCTAG) | 0.00827
TATTCTCCTTGGGTTCTAACCTGTTGCAT (site TATTCTCCTAT) | 0.186
